# Article PMC7901654, “Bioisosteric Discovery of NPA101.3, a Second-Generation RET/VEGFR2 Inhibitor Optimized for Single-Agent Polypharmacology” (Journal of Medicinal Chemistry, 2020)
# Assays:
# [1] = test system: RET mutant TT, MZ-CRC-1, TPC-1, and Lc-2/ad human cancer cells; test: Cell growth curves, RET mutant human cancer cells taken together; format: cell-based; conditions: range over TT, MZ-CRC-1, TPC-1, Lc-2/ad, read-out: IC50, proliferation of RET mutant human cancer cells
# Procedure: The IC50 dose for all human RET-negative cells was >100.0 nM, confirming compound selectivity (Figure S8 and Table S4).
# Nthy-ory-3-1 (10000 per well), TPC-1 (10000 per well), MZ-CRC-1 (100000 per well), TT (200000 per well), Lc-2/ad (100000 per well), BCPAP (10000 per well), 8505-C (10000 per well), PC-9 (10000 per well), A549 (10000 per well), CALU-1 (10000 per well), NIH3T3 RET/C634Y (10000 per well), and NIH3T3 HRAS/G12V (10000 per well) were seeded in six-well tissue culture plates. Cells were kept in 2% (TPC-1), 5% (Nthy-ori-3-1), or 10% (BCPAP, 8505-C, CALU-1, A549, PC-9, TT, MZ-CRC-1, and Lc-2/ad) fetal calf serum or in 2% (NIH3T3 RET/C634Y and HRAS/G12V) calf serum. Ba/F3 cells (200000 per well in 2 mL) were seeded in six-well tissue culture plates and kept in 10% fetal calf serum. The day after plating, different concentrations of the drug or vehicle were added to the medium and changed every 2–3 days. Cells were counted every day (Ba/F3), every 2 days (fibroblasts), or every 2–3 days (human cell lines). To compare cell growth, we performed an unpaired Student’s t test using the Instat software program (Graphpad Software Inc.). […] IC50 doses were calculated through a curve fitting analysis from last day of growth curves using the PRISM software program (Graphpad Software Inc.).
# [2] = test system: NIH3T3 RET/C634Y tumors; format: in vivo
# Procedure: In vivo target (RET and VEGFR2) inhibition was studied by treating animals grafted with NIH3T3 RET/C634Y cells at different doses (0.3, 1, or 3 mg/kg/day p.o.) of NPA101.3 for 2 days and then performing Western blot analysis on protein extracts. […] Then, to determine antitumorigenic activity and to better distinguish RET- and VEGFR2-mediated effects, we tested NPA101.3 in nude mice transplanted with NIH3T3 cells transformed by either RET/C634Y or HRAS/G12V. Before tumors appeared, animals were treated daily with NPA101.3 (1.0, 3.0, or 10.0 mg/kg/day) or left untreated. […] Still, VEGFR2 inhibition was detected also in RAS-driven tumors, an effect that might explain the, albeit reduced, effect of the drug on their growth (Figure S13). Importantly, as predicted, no trace of NPA101.3 demethyl metabolites was detected after 1 or 4 h from oral dosing in mice (Figure S14).
# Figure 6 Effects of NPA101.3 on in vivo tumor growth. NIH3T3 cells transformed by RET/C634Y or HRAS/G12V were inoculated subcutaneously into nu/nu mice. After 4 days, animals were randomly assigned to receive for the indicated time periods the compound (1.0, 3.0, or 10 mg/kg/day) (24 mice; 8 mice/group for 1, 3, and 10 mg/kg doses) or vehicle (8 mice) by oral gavage. The average size of tumors is reported ± SD.
# NPA101.3 was dissolved in 80% H2O, 19.875% Tween 20, and 0.125% xanthan gum. The formulation was stored at room temperature and vortexed prior to administration. NIH3T3 RET/C634Y (200000) or NIH3T3 HRAS/G12V (50000) cells were inoculated subcutaneously into the dorsal portion (both sides) of 6-week-old female BALB/c nu/nu mice (32 mice/cell line) (Jackson Laboratories, Bar Harbor, ME). After 4 days, before tumors had appeared, animals were randomly assigned to receive NPA101.3 (1.0, 3.0, or 10 mg/kg/day) (8 mice/group) or vehicle control (8 mice) by oral gavage. Tumor diameters were measured with caliper every 2–3 days. Tumor volumes (V) were calculated by the rotational ellipsoid formula V = A × B^2/2 (A is the axial diameter, and B is the rotational diameter). […] Animals were fed ad libitum on an autoclaved diet and tap water and maintained at the Dipartimento di Medicina Molecolare e Biotecnologie Mediche Animal Facility. All manipulations were performed while the animals were under isoflurane gas anesthesia. Animal studies were conducted in accordance with Italian regulations for experimentation on animals and approved by the Italian Ministry of Health (Authorization 1023/2015-PR). To compare tumor growth, an unpaired Student’s t test (InStat program, GraphPad Software) was used. P values were statistically significant at the P < 0.05 level. […]
structure (smiles),measurement,setting,value
CC(C)(C)c1cc(NC(=O)Cc2ccc(-n3cnc4cc(-c5ccc(S(C)(=O)=O)cc5)ccc43)cc2)no1 [NPA101.3],IC50,[1],0.67 to 3.6 nM
same,RET phosphorylation and signaling in NIH3T3 RET/C634Y tumors,"[2]; 1.0 mg/kg, 3 h after last dose",strong RET phosphorylation and signaling inhibition
same,tumor formation induced by RET/C634Y-transformed cells,"[2]; 10 mg/kg/day oral, nu/nu mice, treatment before tumors appeared",completely prevented
same,rate of growth of RET-driven tumors,"[2]; lower doses (1.0, 3.0 mg/kg/day) oral",significantly reduced
same,signs of wasting or toxicity in xenograft mice,"[2]; mouse, in vivo",No mouse showed signs of wasting or other signs of toxicity
